Reference: PMC5007552, “The hVps34‐SGK3 pathway alleviates sustained PI3K/Akt inhibition by stimulating mTORC1 and tumour growth” (The EMBO Journal, 2016)
“And” between values parts separate entries of the source, which are not always exact repeats. Equal entries are not always repeated.

Test system: ZR-75-1 cells
Test: NanoString human kinome mRNA quantification
Format: cell-based
Description: Human mRNAs were hybridised to NanoString human kinome and control code sets, then subjected to quantification using NanoString software. […] To permit data compaction, and simple kinome‐wide comparisons, the fold changes are log2 transformed. […] Cell pellets were resuspended at a concentration of ~6,500 cells/μl in RLT buffer (Qiagen). […] For total copy numbers, triplicate normalised count values were averaged, and to calculate fold induction, means were divided by triplicate mean values from matched DMSO controls. P‐values were calculated using unpaired t‐test (GraphPad Prism software) by employing treated and control count data for each kinase mRNA.

NC1(c2ccc(-c3nc4ccn5c(=O)[nH]nc5c4cc3-c3ccccc3)cc2)CCC1 [MK-2206]
Normalised counts (EGFR mRNA, single replicates): 75.1 and 79.82 and 79.29 | Average normalised counts (EIF2AK1 mRNA): 3890.11 | Normalised counts (EIF2AK1 mRNA, single replicates): 3762.77 and 3749.38 and 4158.18 | Average normalised counts (EIF2AK2 mRNA): 387.137 | Normalised counts (EIF2AK2 mRNA, single replicates): 351.43 and 373.45 and 436.53 | Average normalised counts (EIF2AK3 mRNA): 167.45 | Normalised counts (EIF2AK3 mRNA, single replicates): 158.73 and 166.69 and 176.93 | Average normalised counts (EIF2AK4 mRNA): 999.56 | Normalised counts (EIF2AK4 mRNA, single replicates): 986.79 and 999.81 and 1012.08 | Average normalised counts (EPHA1 mRNA): 298.103 | Normalised counts (EPHA1 mRNA, single replicates): 293.25 and 307.43 and 293.63 | Average normalised counts (EPHA2 mRNA): 98.1433 | Normalised counts (EPHA2 mRNA, single replicates): 101.46 and 85.9 and 107.07 | Average normalised counts (EPHA3 mRNA): 1 | Normalised counts (EPHA3 mRNA, single replicates): 1 | Average normalised counts (EPHA4 mRNA): 54.0467 | Normalised counts (EPHA4 mRNA, single replicates): 47.83 and 66.78 and 47.53 | Average normalised counts (EPHA5 mRNA): 2.657 | Normalised counts (EPHA5 mRNA, single replicates): 2.39 and 2.5 and 3.08 | Average normalised counts (EPHA6 mRNA): 46.39 | Normalised counts (EPHA6 mRNA, single replicates): 39.65 and 42.46 and 57.06 | Average normalised counts (EPHA7 mRNA): 9.993 | Normalised counts (EPHA7 mRNA, single replicates): 14.2 and 10.32 and 5.46 | Average normalised counts (EPHA8 mRNA): 2.44 | Normalised counts (EPHA8 mRNA, single replicates): 4.2 and 1.63 and 1.49 | Average normalised counts (EPHA10 mRNA): 29.9233 | Normalised counts (EPHA10 mRNA, single replicates): 36.93 and 25.95 and 26.89 | Average normalised counts (EPHB1 mRNA): 2.73 | Normalised counts (EPHB1 mRNA, single replicates): 4.2 and 2.5 | Average normalised counts (EPHB2 mRNA): 16.0233 | Average normalised counts (EPHB3 mRNA): 206.547 | Average normalised counts (EPHB4 mRNA): 1166.85 | Average normalised counts (EPHB6 mRNA): 2.217 | Average normalised counts (ERBB2 mRNA): 3923.04 | Average normalised counts (ERBB3 mRNA): 1260.11 | Average normalised counts (ERBB4 mRNA): 408.193 | Average normalised counts (ERN1 mRNA): 386.247 | Average normalised counts (ERN2 mRNA): 2.483 | Average normalised counts (FASTK mRNA): 67.2133 | Average normalised counts (FASTKD1 mRNA): 614.733 | Average normalised counts (FASTKD2 mRNA): 563.933 | Average normalised counts (FASTKD3 mRNA): 173.083 | Average normalised counts (FASTKD5 mRNA): 437.597 | Average normalised counts (FER mRNA): 455.723 | Average normalised counts (FES mRNA): 1.427 | Average normalised counts (FGFR1 mRNA): 1112.53 | Average normalised counts (FGFR2 mRNA): 189.803 | Average normalised counts (FGFR3 mRNA): 1392.79 | Average normalised counts (FGFR4 mRNA): 1462.07 | Average normalised counts (FGFRL1 mRNA): 1225.18 | Average normalised counts (FGR mRNA): 1 | Average normalised counts FLJ25006 (FLJ25006 mRNA, average of 3 replicates): 106.973 | Normalised counts FLJ25006 (FLJ25006 mRNA, single replicates): 105.1 and 102.4 and 113.42 | Average normalised counts FLT1 (FLT1 mRNA, average of 3 replicates): 1 | Normalised counts FLT1 (FLT1 mRNA, single replicates): 1 | Average normalised counts FLT3 (FLT3 mRNA, average of 3 replicates): 149.337 | Normalised counts FLT3 (FLT3 mRNA, single replicates): 146.91 and 161.48 and 139.62 | Average normalised counts FLT4 (FLT4 mRNA, average of 3 replicates): 1.957 | Normalised counts FLT4 (FLT4 mRNA, single replicates): 1 (2×) and 3.87 | Average normalised counts FRK (FRK mRNA, average of 3 replicates): 160.35 | Normalised counts FRK (FRK mRNA, single replicates): 165.09 and 158.87 and 157.09 | Average normalised counts FYN (FYN mRNA, average of 3 replicates): 5.563 | Normalised counts FYN (FYN mRNA, single replicates): 5.11 and 7.71 and 3.87 | Average normalised counts GAK (GAK mRNA, average of 3 replicates): 673.637 | Normalised counts GAK (GAK mRNA, single replicates): 641.39 and 690.54 and 688.98 | Average normalised counts GRK1 (GRK1 mRNA, average of 3 replicates): 10.12 | Normalised counts GRK1 (GRK1 mRNA, single replicates): 8.75 and 4.24 and 17.37 | Average normalised counts GRK4 (GRK4 mRNA, average of 3 replicates): 59.8967 | Normalised counts GRK4 (GRK4 mRNA, single replicates): 59.65 and 50.28 and 69.76 | Normalised counts GRK5 (GRK5 mRNA, single replicates): 18.75 and 22.48 and 22.13 | Average normalised counts GRK7 (GRK7 mRNA, average of 3 replicates): 1.957 | Normalised counts GRK7 (GRK7 mRNA, single replicates): 1 (2×) and 3.87 | Average normalised counts GSG2 (GSG2 mRNA, average of 3 replicates): 390.143 | Normalised counts GSG2 (GSG2 mRNA, single replicates): 395.97 and 394.3 and 380.16 | Average normalised counts GSK3A (GSK3A mRNA, average of 3 replicates): 3191.73 | Normalised counts GSK3A (GSK3A mRNA, single replicates): 3156.49 and 3192.52 and 3226.18 | Average normalised counts GSK3B (GSK3B mRNA, average of 3 replicates): 4035 | Normalised counts GSK3B (GSK3B mRNA, single replicates): 3944.57 and 4049.09 and 4111.34 | Average normalised counts GUCY2C (GUCY2C mRNA, average of 3 replicates): 1 | Normalised counts GUCY2C (GUCY2C mRNA, single replicates): 1 | Average normalised counts GUCY2D (GUCY2D mRNA, average of 3 replicates): 5.627 | Normalised counts GUCY2D (GUCY2D mRNA, single replicates): 6.02 and 8.58 and 2.28 | Average normalised counts GUCY2F (GUCY2F mRNA, average of 3 replicates): 1.693 | Normalised counts GUCY2F (GUCY2F mRNA, single replicates): 1 (2×) and 3.08 | Average normalised counts HCK (HCK mRNA, average of 3 replicates): 1.533 | Normalised counts HCK (HCK mRNA, single replicates): 1.48 and 1.63 and 1.49 | Average normalised counts HIPK1 (HIPK1 mRNA, average of 3 replicates): 582.127
